Read-outs that look alike come from different tables or passages of the source.
Legend:
[1] = tested on: isolated tick salivary gland; assay: ion secretion in saliva of the isolated tick salivary gland; set-up: species or system Amblyomma americanum
[2] = tested on: Aedes aegypti mosquitoes; assay: saliva collection from live mosquito after injection; format: in vivo; conditions: control 1.4 μL
Source text: We investigated the influence of Katp modulators on mosquito salivation and blood feeding. We employed an established assay to collect the saliva from a live mosquito.

[3] = tested on: Amblyomma americanum; assay: tick toxicity (compound in blood meal or injected); format: in vivo; conditions: for mortality rate: in blood meal
Source text: A failure to osmoregulate during blood feeding would result in a buildup of ions at toxic concentrations into the hemocoel.

[4] = tested on: Aedes aegypti mosquitoes; assay: mosquito blood feeding with compound exposure; format: in vivo; conditions: compound added to blood
Source text: Tolbutamide and glybenclamide are inhibitors of ATP-gated Kir channels.

[5] = tested on: isolated tick salivary gland; assay: fluid secretion (salivation) in the isolated tick salivary gland, modified Ramsay assay; set-up: species or system Amblyomma americanum; conditions: for IC50: read-out: IC50 inhibition of salivation; for total salivation volume: control 150 nL/5 min
[6] = tested on: Amblyomma americanum; assay: tick blood feeding with compound included in the blood meal; format: in vivo; conditions: for average detachments during blood feeding: control 0.11
Source text: All ticks were observed attempting to feed by including rhodamine B, a fluorescent tracer, in the blood meal.

[7] = tested on: mosquito Kin channels; conditions: in vitro; cited from earlier work
[8] = tested on: mosquitoes; conditions: in vivo; cited from earlier work
[9] = tested on: sugar and bitter cells of mosquito mouthparts; assay: electrophysiological recordings of maxilla gustatory sensilla
[10] = tested on: Chickungunya virus; assay: infection of mosquitoes by virus after blood meal; conditions: in vivo

Cn1c(=O)c2c(ncn2Cc2ccc(C(C)(C)C)cc2)n(C)c1=O [VU063]
cations (K+ and Na+) concentrations excreted from the salivary glands [1]: significant reduction
secreted saliva volume [2]: 0.1 µL
pattern of mortality as a function of time compared with pinacidil ([3]; exposed while feeding): nearly-identical pattern of mortality
reduction of total volume of blood consumed [4]: 99%
effect on salivation in the isolated salivary gland [5]: eliminated salivation
IC50 ([5]; 10 min of salivation): 772 nM
IC50 ([5]; 20 min of salivation): 560 nM
IC50 ([5]; 30 min of salivation): 410 nM
effect of pre-exposure of the gland to ATP on inhibition of salivation ([5]; pre-exposure to ATP): negated the inhibitory effect
tick body weights ([6]; VU063 at 100 μM in blood meal): not statistically different from that of unfed ticks
volume of ingested blood ([6]; compound in blood meal, VU063 at 100 μM): below the limits of detection
average detachments during blood feeding [6]: 3.6 times per feeding

CCC(=O)N1c2ccc(S(=O)(=O)Nc3cccc(OC)c3)cc2CC1C (stereo not shown) [VU625]
IC50 [7]: ~100 nM
topical toxicity to mosquitoes [8]: not topically toxic

CC(N=C(NC#N)Nc1ccncc1)C(C)(C)C (racemic) [pinacidil, (±)-N-Cyano-N′-4-pyridinyl-N″-(1,2,2-trimethylpropyl)guanidine]
response of gustatory sensilla cells [9]: elicits a spike in the sugar and bitter cells
infection of mosquitoes by the virus after feeding on a blood meal [10]: inhibited infection
cations (K+ and Na+) concentrations excreted from the salivary glands [1]: significant reduction
secreted saliva volume [2]: 0.3 µL
mortality rate ([3]; day 1): 65%
mortality rate ([3]; day 2): 72%
mortality rate ([3]; day 3): 88%
mortality rate ([3]; day 4): 94%
mortality rate ([3]; day 5): 99%
reduction of total volume of blood consumed [4]: 99%
total salivation volume ([5]; 600 μM pinacidil after pre-exposure to ATP): 142 nL/5 min
total salivation volume ([5]; 600 μM pinacidil): 40 nL/5 min
Effect on Salivation at 10 minutes (reduction) ([5]; 10 minutes, isolated tick salivary gland): Reduced ~98%
IC50 ([5]; Amblyomma americanum, 10 min, 10 min of salivation): 320000 nM
IC50 ([5]; Amblyomma americanum, 20 min, 20 min of salivation): 250000 nM
IC50 ([5]; Amblyomma americanum, 0.5 h, 30 min of salivation): 120000 nM
reduction of salivary output / saliva secretion compared to control ([5]; isolated tick salivary gland): 97%
reduction of volume of blood ingested ([6]; 400 μM in blood meal, throughout the course of feeding): up to 15 fold
average detachments during blood feeding [6]: 2.1 times per feeding
volume of blood ingested ([6]; day 6 of feeding, 400 μM, control 16±4): 1.2±0.3 μL per day

Source: patent US11632953B2, “Method for controlling hematophagous or sap-feeding arthropods” (Board of Supervisors of Louisiana State University and …, priority 2016, dated 2023)
